# Source: ChEMBL document CHEMBL4616683, “Inhibitors of Hypoxia-Inducible Factors as Treatment for Cancer” (ACS Med Chem Lett, 2020)
# Columns and labels:
# [1] = biological target: T1, Endothelial PAS domain-containing protein 1 (Homo sapiens, UniProt Q99814)
# Description: Inhibition of human recombinant His6Gb1-tagged HIF2alpha PAS B domain (240 to 350 residues)/human recombinant His6/FLAG-tagged ARNT PAS B domain (356 to 470 residues) interaction incubated for 15 mins by AlphaScreen assay
# [2] = biological target: T1, Endothelial PAS domain-containing protein 1; remark: listed apart in the source
# Description: Inhibition of HIF2-alpha in human 786-0 cells harboring HRE-Luc2P reporter construct incubated for 48 hrs by ONE-Glo EX reagent based luminescence assay
# T1 sequence (Q99814 whole entry, the tested form may be a part): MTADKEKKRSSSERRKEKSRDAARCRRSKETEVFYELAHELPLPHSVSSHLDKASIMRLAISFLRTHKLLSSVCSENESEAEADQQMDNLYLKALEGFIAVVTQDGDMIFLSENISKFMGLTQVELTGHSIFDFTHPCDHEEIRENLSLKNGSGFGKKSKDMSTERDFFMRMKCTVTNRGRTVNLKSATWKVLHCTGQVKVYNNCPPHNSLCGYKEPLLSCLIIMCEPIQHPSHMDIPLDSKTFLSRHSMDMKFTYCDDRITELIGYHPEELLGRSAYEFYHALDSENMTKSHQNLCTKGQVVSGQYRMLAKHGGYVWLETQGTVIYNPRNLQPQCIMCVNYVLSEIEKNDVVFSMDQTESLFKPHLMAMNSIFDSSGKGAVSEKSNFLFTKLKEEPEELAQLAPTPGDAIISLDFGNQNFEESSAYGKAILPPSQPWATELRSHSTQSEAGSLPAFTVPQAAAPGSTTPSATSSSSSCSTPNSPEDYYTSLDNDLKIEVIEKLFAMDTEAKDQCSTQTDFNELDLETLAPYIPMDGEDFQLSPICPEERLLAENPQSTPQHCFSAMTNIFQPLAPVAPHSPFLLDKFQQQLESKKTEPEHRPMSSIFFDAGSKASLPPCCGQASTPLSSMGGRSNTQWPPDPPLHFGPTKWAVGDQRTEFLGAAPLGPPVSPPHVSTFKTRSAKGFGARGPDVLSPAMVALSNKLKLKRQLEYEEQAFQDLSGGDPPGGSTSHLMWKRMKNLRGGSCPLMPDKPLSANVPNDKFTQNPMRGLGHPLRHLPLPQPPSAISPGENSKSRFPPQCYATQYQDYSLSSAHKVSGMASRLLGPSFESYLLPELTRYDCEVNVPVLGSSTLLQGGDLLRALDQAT
compound,measurement,setting,value
Cn1nc(C(F)(F)F)cc1-c1sc(S(C)(=O)=O)c2c1CCC(F)(F)[C@H]2O,IC50,[1],> 1 µM
same,IC50,[2],> 1 µM
